Experiments:
[1] = biological target: αvβ6-integrin (Homo sapiens, UniProt P06756+P18564); conditions: cited from earlier work
[2] = biological target: αvβ5 (Homo sapiens, UniProt P06756+P18084); conditions: cited from earlier work
[3] = biological target: αvβ3 (Homo sapiens, UniProt P05106+P06756); conditions: cited from earlier work
[4] = biological target: α5β1 (Homo sapiens, UniProt P05556+P08648); conditions: cited from earlier work
[5] = up to 3 h; cited from earlier work
[6] = biological target: αIIbβ3 (Homo sapiens, UniProt P05106+P08514); conditions: cited from earlier work
[7] = test system: H2009 tumor-bearing SCID mice; test: biokinetics from 90-min dynamic PET scans; conditions: mouse, in vivo
Description: All animal studies have been performed in accordance with general animal welfare regulations in Germany and the institutional guidelines for the care and use of animals. H2009 human lung adenocarcinoma cells (CRL-5911; American Type Culture Collection) were cultivated as recommended by the distributor. To generate tumor xenografts, 6- to 8-week-old female CB17 SCID mice (Charles River) were inoculated with 10^7 H2009 cells in Matrigel (CultrexBME, type 3 PathClear; Trevigen, GENTAUR GmbH). Mice were used for biodistribution or PET studies when tumors had grown to a diameter of 10-12 mm (4-6 weeks after inoculation).
Mice were anaesthetized with isoflurane for intravenous administration of the radiolabeled compounds. The administered activity per mouse ranged between 10 and 15 MBq (100-200 pmol, depending on variations in timing of production and administration). PET imaging was performed on a Siemens Inveon small-animal PET system, either dynamic under isoflurane anaesthesia for 90 min, or as single frames 75 min p.i. with an acquisition time of 20 min. Data were reconstructed using Siemens Inveon Research Workspace software, employing a three-dimensional ordered subset expectation maximum (OSEM3D) algorithm without scatter and attenuation correction. For kinetic analyses, regions of interest (ROIs) were defined manually.

Sequence of αvβ5 (P06756 31-1048): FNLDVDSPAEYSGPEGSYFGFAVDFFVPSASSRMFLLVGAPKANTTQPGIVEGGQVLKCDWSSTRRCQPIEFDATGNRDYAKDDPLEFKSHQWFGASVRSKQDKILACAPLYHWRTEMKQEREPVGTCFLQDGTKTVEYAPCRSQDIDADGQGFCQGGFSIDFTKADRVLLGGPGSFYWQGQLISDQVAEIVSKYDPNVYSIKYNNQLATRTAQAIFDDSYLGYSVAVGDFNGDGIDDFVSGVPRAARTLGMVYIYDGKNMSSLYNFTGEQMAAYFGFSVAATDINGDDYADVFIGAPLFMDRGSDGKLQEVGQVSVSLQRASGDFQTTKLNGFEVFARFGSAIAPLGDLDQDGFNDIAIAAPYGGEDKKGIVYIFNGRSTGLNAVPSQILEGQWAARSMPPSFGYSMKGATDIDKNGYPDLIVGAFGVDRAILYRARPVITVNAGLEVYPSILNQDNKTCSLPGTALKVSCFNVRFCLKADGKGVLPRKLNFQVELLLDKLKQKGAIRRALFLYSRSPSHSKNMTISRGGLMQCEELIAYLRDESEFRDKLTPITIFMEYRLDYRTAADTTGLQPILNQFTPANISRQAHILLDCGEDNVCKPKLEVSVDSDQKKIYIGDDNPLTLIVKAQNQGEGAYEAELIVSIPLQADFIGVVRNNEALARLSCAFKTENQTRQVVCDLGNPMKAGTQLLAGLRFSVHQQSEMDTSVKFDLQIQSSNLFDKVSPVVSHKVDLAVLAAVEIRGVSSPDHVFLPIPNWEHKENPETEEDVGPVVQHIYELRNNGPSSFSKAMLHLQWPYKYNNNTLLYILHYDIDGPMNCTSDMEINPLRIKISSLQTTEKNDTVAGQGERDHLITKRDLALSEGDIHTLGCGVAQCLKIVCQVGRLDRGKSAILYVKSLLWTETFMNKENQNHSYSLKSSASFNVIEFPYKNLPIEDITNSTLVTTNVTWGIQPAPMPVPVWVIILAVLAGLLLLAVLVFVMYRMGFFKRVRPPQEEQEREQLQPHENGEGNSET
Sequence of αvβ5 (P18084 24-799): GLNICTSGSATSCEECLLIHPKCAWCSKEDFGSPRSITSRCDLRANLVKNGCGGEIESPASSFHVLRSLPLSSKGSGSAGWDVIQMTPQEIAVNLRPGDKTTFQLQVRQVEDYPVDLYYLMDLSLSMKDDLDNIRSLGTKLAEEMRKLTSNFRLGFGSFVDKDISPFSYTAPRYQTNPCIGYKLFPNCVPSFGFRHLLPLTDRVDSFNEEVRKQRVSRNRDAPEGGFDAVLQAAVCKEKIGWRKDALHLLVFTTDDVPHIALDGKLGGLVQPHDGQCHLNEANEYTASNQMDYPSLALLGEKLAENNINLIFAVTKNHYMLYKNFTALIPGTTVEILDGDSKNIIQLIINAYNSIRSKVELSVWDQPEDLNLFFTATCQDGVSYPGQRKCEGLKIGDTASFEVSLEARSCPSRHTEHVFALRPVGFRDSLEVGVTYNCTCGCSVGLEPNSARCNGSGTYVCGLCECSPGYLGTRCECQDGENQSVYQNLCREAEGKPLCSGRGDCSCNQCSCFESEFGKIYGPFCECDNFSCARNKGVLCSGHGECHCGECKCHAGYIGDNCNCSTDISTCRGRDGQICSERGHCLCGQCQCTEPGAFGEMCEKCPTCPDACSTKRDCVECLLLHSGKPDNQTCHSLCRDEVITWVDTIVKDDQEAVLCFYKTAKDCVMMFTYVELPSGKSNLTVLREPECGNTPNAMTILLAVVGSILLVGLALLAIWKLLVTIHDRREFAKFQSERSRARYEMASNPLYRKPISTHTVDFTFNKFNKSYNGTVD
Sequence of αIIbβ3 (P08514 32-1039): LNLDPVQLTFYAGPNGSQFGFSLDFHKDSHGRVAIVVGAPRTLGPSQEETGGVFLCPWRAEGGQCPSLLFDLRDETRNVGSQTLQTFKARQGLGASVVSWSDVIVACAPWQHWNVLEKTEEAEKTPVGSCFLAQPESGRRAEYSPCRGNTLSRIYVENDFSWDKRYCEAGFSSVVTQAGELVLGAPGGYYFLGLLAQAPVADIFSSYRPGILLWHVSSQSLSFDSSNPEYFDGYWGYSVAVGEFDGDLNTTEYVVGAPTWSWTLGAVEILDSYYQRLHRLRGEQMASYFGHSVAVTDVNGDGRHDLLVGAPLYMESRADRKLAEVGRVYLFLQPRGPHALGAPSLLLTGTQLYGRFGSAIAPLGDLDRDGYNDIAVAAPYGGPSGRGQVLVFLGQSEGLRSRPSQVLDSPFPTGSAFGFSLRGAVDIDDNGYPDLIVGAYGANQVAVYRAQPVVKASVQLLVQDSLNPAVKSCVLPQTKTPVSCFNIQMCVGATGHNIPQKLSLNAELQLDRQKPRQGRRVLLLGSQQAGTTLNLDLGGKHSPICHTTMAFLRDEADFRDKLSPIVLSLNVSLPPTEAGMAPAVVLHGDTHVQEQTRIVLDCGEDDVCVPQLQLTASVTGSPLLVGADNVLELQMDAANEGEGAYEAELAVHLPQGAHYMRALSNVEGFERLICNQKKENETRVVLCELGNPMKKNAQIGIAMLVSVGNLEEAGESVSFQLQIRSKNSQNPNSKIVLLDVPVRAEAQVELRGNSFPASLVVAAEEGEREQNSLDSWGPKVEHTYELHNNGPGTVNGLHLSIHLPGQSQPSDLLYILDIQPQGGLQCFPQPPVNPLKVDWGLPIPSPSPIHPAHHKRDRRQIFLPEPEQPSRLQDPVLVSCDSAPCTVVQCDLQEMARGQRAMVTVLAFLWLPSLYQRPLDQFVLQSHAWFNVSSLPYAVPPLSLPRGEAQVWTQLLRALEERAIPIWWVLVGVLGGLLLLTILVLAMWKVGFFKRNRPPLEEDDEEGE
Sequence of αIIbβ3 (P05106 27-788): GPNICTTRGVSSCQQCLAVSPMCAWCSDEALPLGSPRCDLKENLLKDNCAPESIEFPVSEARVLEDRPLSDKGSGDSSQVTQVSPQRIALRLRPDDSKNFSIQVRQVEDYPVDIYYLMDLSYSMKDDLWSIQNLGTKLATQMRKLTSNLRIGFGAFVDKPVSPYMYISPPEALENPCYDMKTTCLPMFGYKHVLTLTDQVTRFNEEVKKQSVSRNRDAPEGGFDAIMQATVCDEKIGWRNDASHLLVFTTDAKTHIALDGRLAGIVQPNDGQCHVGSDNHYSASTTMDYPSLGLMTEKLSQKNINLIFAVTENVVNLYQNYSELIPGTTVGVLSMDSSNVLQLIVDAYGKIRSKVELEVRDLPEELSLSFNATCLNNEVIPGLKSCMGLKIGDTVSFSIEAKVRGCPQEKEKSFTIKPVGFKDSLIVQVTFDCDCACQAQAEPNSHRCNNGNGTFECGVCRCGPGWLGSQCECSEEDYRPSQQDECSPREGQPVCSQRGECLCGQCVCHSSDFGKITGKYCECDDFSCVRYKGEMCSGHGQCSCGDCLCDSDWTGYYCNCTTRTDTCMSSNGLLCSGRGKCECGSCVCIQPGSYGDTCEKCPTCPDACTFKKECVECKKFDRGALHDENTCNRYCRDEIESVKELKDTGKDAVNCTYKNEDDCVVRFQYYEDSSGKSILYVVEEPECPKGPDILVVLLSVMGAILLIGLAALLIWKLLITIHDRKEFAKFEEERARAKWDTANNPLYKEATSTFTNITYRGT

Compound | affinity to αvβ6-integrin [1] | affinity αvβ5 (selectivity against other integrins) [2] | affinity αvβ3 (selectivity against other integrins) [3] | affinity α5β1 (selectivity against other integrins) [4] | stability in human plasma [5] | affinity αIIbβ3 (selectivity against other integrins) [6] | clearance from the blood pool [7]
cyclo(FRGDLAFp(NMe)K) [Phe2] | 0.26 nM | > 1 µM | 632 nM | 73 nM | full stability | > 1 µM | 
CC(C)C[C@@H]1NC(=O)[C@H](CC(=O)O)NC(=O)CNC(=O)[C@H](CCCNC(=N)N)NC(=O)[C@H](Cc2ccc(O)cc2)NC(=O)[C@H](CCCCNC(=O)CCc2cn(CCCNC(=O)CCP(=O)(O)CN3CCN(CP(=O)(O)CCC(=O)NCCCn4cc(CCC(=O)NCCCC[C@H]5C(=O)N[C@@H](Cc6ccc(O)cc6)C(=O)N[C@@H](CCCNC(=N)N)C(=O)NCC(=O)N[C@@H](CC(=O)O)C(=O)N[C@@H](CC(C)C)C(=O)N[C@@H](C)C(=O)N[C@@H](Cc6ccccc6)C(=O)N6CCC[C@@H]6C(=O)N5C)nn4)CCN(CP(=O)(O)CCC(=O)NCCCn4cc(CCC(=O)NCCCC[C@H]5C(=O)N[C@@H](Cc6ccc(O)cc6)C(=O)N[C@@H](CCCNC(=N)N)C(=O)NCC(=O)N[C@@H](CC(=O)O)C(=O)N[C@@H](CC(C)C)C(=O)N[C@@H](C)C(=O)N[C@@H](Cc6ccccc6)C(=O)N6CCC[C@@H]6C(=O)N5C)nn4)CC3)nn2)N(C)C(=O)[C@H]2CCCN2C(=O)[C@H](Cc2ccccc2)NC(=O)[C@H](C)NC1=O [Ga-68-C-9, metal not drawn] |  |  |  |  |  |  | much faster than that of Ga-68-TRAP(Phe2)3
